Measured values from patent US4939124A, “Treatment and diagnosis of dementia” (Laboratorios Serono S.A., priority 1988, dated 1990).
No end group written: not given here.

Columns and labels:
Male Wistar rats [1] = assay: Locomotor activity in open field paradigm (OUCEM-86), i.c.v. injection; type: in vivo; details: for ED50 of change in LA / Emax of change in LA (given as a dose): i.c.v., dose range 0.1 to 10 mcg
Source text: (§1) To clarify whether SS and GRF display at the central level the same antagonistic effect that they have at the pituitary level, the effects of these neuropeptides on several behavioral parameters have been studied using the OUCEM-86^TM (Osaka University Computerized Electronic Maze). The system is integrated by the following components: a Programmable Electronic Platform (PEP) (620×620 mm) equipped with 48 photo beam sensors (OPX-T30); a Programming Panel (PP) (Model BECM-0064) for paradigm stimulation; a Shock Generator Scrambler (SGS) (Model BSG-1065) to apply continuous or discontinuous electric current to the PEP; a Control Station (CS) (BEC 16-Bio Computer Control Station BCS-1105; Bio Medica, Ltd., Osaka) which processes inputs/outputs as an interface device to automatically computerize behavioral parameters; and a Computer System (NEC PC-9801 VM2) with 1 megabyte Random Access Memory (RAM) for data processing and experimental setting.
(§2) Male Wistar rats (175-200 g) (N =5-8 rats/group) received intracerebroventricular (i.c.v.) injections of GRF1-44 and SS-14 over a range of 0.1 to 10 mcg. Then the rats were studied in the OUCEM under two different paradigms (e.g., open field and maze paradigms).
The animals were placed in the PEP for 30-minute periods and locomotor activity (LA) was automatically recorded in an open field paradigm. Total LA is represented as total inputs (I/O) including movements in four-footed position (4F) and in two-footed position (2F), grooming, rearing and jumping activity, while linear (horizontal) movements (4F) are represented as pulses per minute (pm) or cm^2 /min

Male Wistar rats [2] = assay: Locomotor activity and learning in maze paradigm (escape from 1.5 mA shock area), i.c.v. injection; type: in vivo
Experimental: The animals had to learn to escape from the shock area in order to avoid a continuous 1.5 mA electric shock. Experimental time --30 minutes.
The rats were treated intracerebroventricularly with SS-14 (1 mcg) and GRF1-44 (1 mcg) and their behavior was automatically recorded by computer using the maze paradigm shown in FIG. 1. p/t denotes pulses per time unit (minute). Locomotor activity was quantified in pulses per minute or cm^2 /min. Total inputs (I/O) in neutral position (white bars) and shock position (black bars) denote how many times the animals enter neutral and shock areas. The N/S ratio results from dividing I/O in neutral position by I/O in shock position and is interpreted as an index of learning in the 30-minute experimental period. The positional time (seconds) represents how long the animals stay in neutral (white bars) or shock (black bars) areas. N-sp and S-sp (in seconds) indicate the time-latency per movement or input in neutral (white bars) and shock (black bars) areas, respectively.
as §1, §2
The amount of inputs (I/O) induced by SS was 103.5±29.5 (control =216.25±55.19, t=8.49, p<0.005) in the neutral area (NA) and 77.14±13.5 I/O in the shock area (SA) (control =298±40, t=1.26, n.s.). GRF generated 459.35±32.5 I/O in NA (t=18.13, p<0.005) and 340.5±63.5 I/O in SA (t=9.07, p<0.005) (FIGS. 1C,3). The NA/SA (N/S) ratios for control, SS- and GRF-treated rats were 0.72, 1.33, and 1.35, respectively (FIG. 2).

[3] = test system: female in-patients with primary degenerative dementia (Alzheimer like); assay: 8-day GRF (1-29) NH2 therapy, MMS Folstein test and Crichton's scale; type: in vivo, human; details: MMS-Folstein test and Crichton's scale test
Experimental: Twenty female in-patients with primary degenerative dementia (Alzheimer like) aged 67-84 years were divided in two therapy-groups with GRF (1-29) NH2. All patients were treated with this product for 8 days with either of the following schedules: (I) 250 mcg s.c. twice daily (II) 50 mcg i.v. twice daily Therapy was started after a 15-day wash-out period for psychotropic-drugs. Evolution of patients was assessed using the MMS Folstein test and Chrichton's scale test at 12 hours, 24 hours and 7 days after starting with GRF. The statistical evaluation was made using Friedman test with a risk level p<0,01 (highly significant differences).

## GRF1-44: 1-44 segment of growth hormone releasing factor, injected i.c.v. in rats; called GRF in Examples 1-2
Male Wistar rats [1]
  ED50 of change in LA: 99.1 pmol
  Emax of change in LA (given as a dose): 1.98 nmol

## C[C@H](N)C(=O)NCC(=O)N[C@H]1CSSC[C@@H](C(=O)O)NC(=O)[C@H](CO)NC(=O)[C@H]([C@@H](C)O)NC(=O)[C@H](Cc2ccccc2)NC(=O)[C@H]([C@@H](C)O)NC(=O)[C@H](CCCCN)NC(=O)[C@H](Cc2c[nH]c3ccccc23)NC(=O)[C@H](Cc2ccccc2)NC(=O)[C@H](Cc2ccccc2)NC(=O)[C@H](CC(N)=O)NC(=O)[C@H](CCCCN)NC1=O [SS, somatostatin]
Male Wistar rats [1]; 1 mcg i.c.v. (SS-14 / GRF1-44), 30-minute period, control 31.16±6.90 pm
  locomotor activity (LA), open field: 20.88±2.82 pm
Male Wistar rats [1]
  ED50 of change in LA: 1830 pmol
  Emax of change in LA (given as a dose): 6.10 nmol
Male Wistar rats [2]; 1 mcg i.c.v., 30 minutes, control 17.12±5.42 pm
  locomotor activity (LA), maze paradigm: 6.01±1.45 pm
Male Wistar rats [2]; 1 mcg i.c.v., control 0.72
  NA/SA (N/S) ratio (index of learning): 1.33
Male Wistar rats [2]; 1 mcg i.c.v., control 216.25±55.19
  amount of inputs (I/O) in the neutral area (NA): 103.5±29.5 I/O
Male Wistar rats [2]; 1 mcg i.c.v., control 298±40
  amount of inputs (I/O) in the shock area (SA): 77.14±13.5 I/O
Male Wistar rats [2]; doses of approximately 6.10×10^-10 mol (SS) and 1.98×10^-10 mol (GRF), i.c.v.
  learning abilities (N/S ratio as index): improve learning abilities
Male Wistar rats [2]; maze paradigm, i.c.v.
  comparison of SS and GRF in improving learning: more effective than GRF in improving learning

## GRF1-29: 1-29 segment of growth hormone releasing factor
Male Wistar rats [1]
  ED50 of change in LA: 297 pmol
  Emax of change in LA (given as a dose): 5.95 nmol

## GRF (1-29) NH2: GRF product given s.c. or i.v. to dementia patients; called GRF in Example 3 (YADAIFTNSYRKVLGQLSARKLLQDIMSR-NH2; UniProt P01286 32-60, looked up, fragment)
[3]
  overall effect confirmed by re-evaluation after end of administration: significant effect
